Measured values: patent US20100159030A1, “METHODS FOR DETECTING AND MODULATING THE SENSITIVITY OF TUMOR CELLS TO ANTI-MITOTIC AGENTS AND FOR MODULATING TURMORGENICITY” (NewSouth Innovations Pty Limited, priority 2007, published 2010)

Test system: H460 cells
Assay: Cell cycle analysis by flow cytometry (propidium iodide)
Type: cell-based, Human
Conditions: 24 h
Method: The distribution of DNA content in βII or βIVb tubulin siRNA-transfected H460 cells was determined by flow cytometry. After 72 h transfection, transfected cells were exposed to vincristine at 5 nM or 40 nM concentrations for 24 h. On the day of analysis, both adherent and floating cells were harvested, washed with PBS and then stained with a solution containing 0.4% Triton® X-100 (Sigma), 50 μg/ml propidium iodide (Sigma), and 2 μg/ml DNase-free RNase (Roche, Indianapolis, Ind.) in the dark for 15 min at 37′C. DNA content was measured by a FACSCalibur flow cytometer (Becton Dickinson, San Diego, Calif.). The flow rate was <200 nuclei per second and 10,000 cells from each sample were analysed. Measurements were performed under the same instrumental settings. The CellQuest® program was used to quantitate the distribution of cells in each cell cycle phase: sub-G1 (apoptotic cells), G1, S and G2/M.
To determine whether βIII-tubulin silencing affects the cell cycle profiles, cell cycle analysis using flow cytometry was performed. Cell cycle analysis was determined by transfecting H460 cells with siRNA for 72 h and harvesting (adherent and suspension) cells 24 h after drug treatment. DNA content was stained for 15 min at 37° C. with a solution containing 0.4% Triton® X-100 (Sigma-Aldrich), 50 μg/ml propidium iodide (Sigma-Aldrich), and 2 μg/ml DNAse-free RNAse (Roche, Indianapolis, Ind.). The cells were then analyzed for cell cycle perturbation using a FACSCalibur (Becton-Dickinson, Franklin Lakes, N.J.). The CellQuest® program was used to quantitate the distribution of cells in each cell cycle phase: sub-G1(apoptotic cells), G1, S and G2/M.

Structure (SMILES): CC(=O)O[C@H]1C(=O)[C@@]2(C)[C@H]([C@H](OC(=O)c3ccccc3)[C@]3(O)C[C@H](OC(=O)[C@H](O)[C@@H](NC(=O)c4ccccc4)c4ccccc4)C(C)=C1C3(C)C)[C@]1(OC(C)=O)CO[C@@H]1C[C@@H]2O [Paclitaxel, paclitaxel]
- cell cycle profile (control siRNA cells, 40 nM): marked G2/M block
- cell cycle profile (βIII-tubulin siRNA cells vs control siRNA, 5 nM): higher sub-G1 (apoptotic cells) content
- cell cycle profile (βIII-tubulin siRNA cells, 40 nM): marked increase in the sub-G1 population
